The values below come from ChEMBL document CHEMBL3046860, “Photosynthetic Electron Transport Inhibitory and Herbicidal Activities of 2-(Fluorinated methyl-4-benzylamino-6-methyl)-1, 3, 5-triazines” (J Pestic Sci, 2000).

Experiment [1] has as its system Rotala indica. Nature of the experiment: Pre-emergence herbicidal activity against Rotala indica at 400 g a.i./10a measured after 3 weeks by paddy application test. The format is functional.
The test system of experiment [2] is Schoenoplectiella juncoides. Briefly: Pre-emergence herbicidal activity against Schoenoplectiella juncoides var. Hotarui Ohwi at 400 g a.i./10a measured after 3 weeks by paddy application test. The format is functional.
Experiment [3] concerns Digitaria ciliaris. Briefly: Pre-emergence herbicidal activity against Digitaria ciliaris at 400 g a.i./10a measured after 3 weeks by soil application test. The format is functional.
Experiment [4] concerns Amaranthus blitum subsp. oleraceus. Briefly: Pre-emergence herbicidal activity against Amaranthus blitum subsp. Oleraceus at 400 g a.i./10a measured after 3 weeks by soil application test. The format is functional.
In experiment [5] the test system is Echinochloa crus-galli. Nature of the experiment: Post-emergence herbicidal activity against Echinochloa crus-galli var. crus-galli at 400 g a.i./10a measured after 3 weeks by foliar application test. The format is functional.
Experiment [6] relates to Pontederia vaginalis. Nature of the experiment: Pre-emergence herbicidal activity against Monochoria vaginalis at 400 g a.i./10a measured after 3 weeks by paddy application test. The format is functional.
Experiment [7] has as its system Chenopodium album. Nature of the experiment: Pre-emergence herbicidal activity against Chenopodium album at 400 g a.i./10a measured after 3 weeks by soil application test. The format is functional.
In experiment [8] the test system is Echinochloa oryzicola. Briefly: Pre-emergence herbicidal activity against Echinochloa oryzicola at 400 g a.i./10a measured after 3 weeks by paddy application test. The format is functional.
The test system of experiment [9] is Chenopodium album. Nature of the experiment: Post-emergence herbicidal activity against Chenopodium album at 400 g a.i./10a measured after 3 weeks by foliar application test. The format is functional.
In experiment [10] the test system is Digitaria ciliaris. Nature of the experiment: Post-emergence herbicidal activity against Digitaria ciliaris at 400 g a.i./10a measured after 3 weeks by foliar application test. The format is functional.
For experiment [11], the system named is Echinochloa crus-galli. Briefly: Pre-emergence herbicidal activity against Echinochloa crus-galli var. crus-galli at 400 g a.i./10a measured after 3 weeks by soil application test. The format is functional.
Experiment [12] deals with Persicaria longiseta. Briefly: Post-emergence herbicidal activity against Persicaria longiseta at 400 g a.i./10a measured after 3 weeks by foliar application test. The format is functional.
The target of experiment [13] is Photosystem II D1 protein (psbA) (Spinacia oleracea). Briefly: Inhibition of photosynthetic electron transport activity in Spinacia oleracea thylakoids assessed as inhibition of oxygen release.
Experiment [14] concerns Pontederia vaginalis. Briefly: Pre-emergence herbicidal activity against Monochoria vaginalis at 800 g a.i./10a measured after 3 weeks by paddy application test. The format is functional.
Experiment [15] deals with Digitaria ciliaris. Nature of the experiment: Pre-emergence herbicidal activity against Digitaria ciliaris at 800 g a.i./10a measured after 3 weeks by soil application test. The format is functional.
Experiment [16] relates to Echinochloa oryzicola. Briefly: Pre-emergence herbicidal activity against Echinochloa oryzicola at 800 g a.i./10a measured after 3 weeks by paddy application test. The format is functional.
Experiment [17] has as its system Rotala indica. Briefly: Pre-emergence herbicidal activity against Rotala indica at 800 g a.i./10a measured after 3 weeks by paddy application test. The format is functional.
For experiment [18], the system named is Echinochloa crus-galli. Briefly: Pre-emergence herbicidal activity against Echinochloa crus-galli var. crus-galli at 800 g a.i./10a measured after 3 weeks by soil application test. The format is functional.
For experiment [19], the system named is Chenopodium album. Briefly: Pre-emergence herbicidal activity against Chenopodium album at 800 g a.i./10a measured after 3 weeks by soil application test. The format is functional.
The test system of experiment [20] is Schoenoplectiella juncoides. Briefly: Pre-emergence herbicidal activity against Schoenoplectiella juncoides var. Hotarui Ohwi at 800 g a.i./10a measured after 3 weeks by paddy application test. The format is functional.
Experiment [21] relates to Persicaria longiseta. Nature of the experiment: Pre-emergence herbicidal activity against Persicaria longiseta at 400 g a.i./10a measured after 3 weeks by soil application test. The format is functional.
Experiment [22] has as its system Echinochloa crus-galli. Nature of the experiment: Pre-emergence herbicidal activity against Echinochloa crus-galli var. crus-galli at 100 g a.i./10a measured after 3 weeks by soil application test. The format is functional.
The subject of experiment [23] is Chenopodium album. Briefly: Pre-emergence herbicidal activity against Chenopodium album at 100 g a.i./10a measured after 3 weeks by soil application test. The format is functional.
The test system of experiment [24] is Amaranthus blitum subsp. oleraceus. Nature of the experiment: Pre-emergence herbicidal activity against Amaranthus blitum subsp. Oleraceus at 100 g a.i./10a measured after 3 weeks by soil application test. The format is functional.
In experiment [25] the test system is Digitaria ciliaris. Briefly: Pre-emergence herbicidal activity against Digitaria ciliaris at 100 g a.i./10a measured after 3 weeks by soil application test. The format is functional.

Molecules are shown by their SMILES.

In the case of `Cc1nc(NCc2ccc(Br)cc2)nc(C(F)(F)F)n1`, the Activity came to 5% in the experiment on Rotala indica [1]; 6% in experiment [2]; 5% in the experiment with Digitaria ciliaris [3]; 5% in experiment [4]; 4% in the experiment on Echinochloa crus-galli [5]; 5% in the experiment with Pontederia vaginalis [6]. The Activity with Chenopodium album [7] is given as 5%; in the experiment with Echinochloa oryzicola [8], 4%; in the experiment on Chenopodium album [9], 6%; in the experiment on Digitaria ciliaris [10], 6%; with Echinochloa crus-galli [11] it was 5%; in the experiment with Persicaria longiseta [12] it was 6%.

`Cc1nc(NCc2cccc(Cl)c2)nc(C(F)(F)F)n1`: the pI50 in [13] is reported as 7.21.

In the case of `Cc1nc(NCc2ccc(Cl)cc2)nc(C(F)(F)F)n1`, the Activity with Rotala indica [1] stood at 6%; in experiment [2], 6%; with Digitaria ciliaris [3], 5%; in experiment [4] it was 6%; in the experiment with Echinochloa crus-galli [5] it was 4%; in the experiment with Pontederia vaginalis [6] it was 6%. Also, the Activity in the experiment on Chenopodium album [7] is 5%; in the experiment with Echinochloa oryzicola [8] it was 6%; in the experiment on Chenopodium album [9], 6%; in the experiment on Digitaria ciliaris [10], 6%; in the experiment on Echinochloa crus-galli [11], 3%; in the experiment with Persicaria longiseta [12], 6%.

In the case of `Cc1ccc(CNc2nc(C)nc(C(F)(F)F)n2)cc1`, in [13], the pI50 turned out to be 6.74.

With `Cc1nc(NCc2ccc([N+](=O)[O-])cc2)nc(C(F)(F)F)n1`, in experiment [13], the pI50 is reported as 7.16.

Turning to `Cc1nc(C)nc(NCc2ccccc2)n1`, the Activity was determined as 6% in the experiment with Pontederia vaginalis [14]; 0% in the experiment with Digitaria ciliaris [15]; 3% in the experiment with Echinochloa oryzicola [16]; 1% in the experiment with Rotala indica [17]; 0% with Echinochloa crus-galli [5]; 0% in the experiment with Echinochloa crus-galli [18]. For the same molecule, the Activity (with Chenopodium album [9]; in the experiment on Digitaria ciliaris [10]; with Chenopodium album [19]; in experiment [20]; in the experiment with Persicaria longiseta [12]) was 0% throughout.

For `Cc1nc(NCc2ccccc2)nc(C(F)(F)F)n1`, the Activity in the experiment on Rotala indica [1] is on record as 4%; in [2], 0%; in the experiment on Digitaria ciliaris [3] it was 3%; in experiment [4], 4%; with Echinochloa crus-galli [5], 3%; with Pontederia vaginalis [6], 6%. Also, the Activity in the experiment on Chenopodium album [7] stood at 6%; in the experiment with Echinochloa oryzicola [8], 3%; in the experiment with Chenopodium album [9], 6%; in the experiment on Digitaria ciliaris [10] it was 4%; in the experiment with Echinochloa crus-galli [11] it was 2%.

Take `Cc1ccc(CNc2nc(C)nc(C(F)F)n2)cc1`: the Activity in the experiment with Rotala indica [1] is reported as 5%; in experiment [2], 5%; in the experiment with Digitaria ciliaris [3] it was 4%; in experiment [4], 4%; in the experiment on Echinochloa crus-galli [5], 4%; in the experiment on Pontederia vaginalis [6], 5%. Also, the Activity turned out to be 5% with Chenopodium album [7]; 4% in the experiment on Echinochloa oryzicola [8]; 6% with Chenopodium album [9]; 4% with Digitaria ciliaris [10]; 3% with Echinochloa crus-galli [11]; 6% in the experiment on Persicaria longiseta [12]. Also, in the experiment with Persicaria longiseta [21], the Activity is on record as 5%.

As for `Cc1nc(NCc2ccc([N+](=O)[O-])cc2)nc(C(F)F)n1`, the Activity with Rotala indica [1] stood at 6%; in [2], 5%; in the experiment with Digitaria ciliaris [3], 4%; in experiment [4], 5%; in the experiment on Echinochloa crus-galli [5] it was 4%; in the experiment on Pontederia vaginalis [6] it was 5%. The Activity was 5% in the experiment with Chenopodium album [7]; 5% in the experiment on Echinochloa oryzicola [8]; 6% in the experiment on Chenopodium album [9]; 5% in the experiment with Digitaria ciliaris [10]; 4% with Echinochloa crus-galli [11]; 6% in the experiment with Persicaria longiseta [12]. In the experiment with Persicaria longiseta [21], this molecule displayed an Activity of 5%.

`Cc1nc(CF)nc(NCc2ccccc2)n1`: the Activity in the experiment on Rotala indica [1] is given as 0%; in experiment [2], 0%; with Digitaria ciliaris [3], 1%; in experiment [4] it was 4%; with Echinochloa crus-galli [5] it was 0%; with Pontederia vaginalis [6], 0%. Also, the Activity in the experiment on Chenopodium album [7] came out at 5%; with Echinochloa oryzicola [8] it was 0%; in the experiment with Chenopodium album [9], 6%; with Digitaria ciliaris [10], 1%; with Echinochloa crus-galli [11], 1%; in the experiment with Persicaria longiseta [12], 4%. This molecule returned an Activity in the experiment with Persicaria longiseta [21] of 2%.

With `Cc1nc(CF)nc(NCc2ccc(Br)cc2)n1`, the Activity amounted to 6% in the experiment on Rotala indica [1]; 5% in experiment [2]; 4% in the experiment with Digitaria ciliaris [3]; 5% in experiment [4]; 4% in the experiment on Echinochloa crus-galli [5]; 5% with Pontederia vaginalis [6]. The Activity with Chenopodium album [7] is reported as 5%; in the experiment with Echinochloa oryzicola [8] it was 5%; in the experiment with Chenopodium album [9], 6%; with Digitaria ciliaris [10], 5%; with Echinochloa crus-galli [11], 4%; with Persicaria longiseta [12], 6%. The molecule further yielded an Activity with Persicaria longiseta [21] of 5%.

Regarding `Cc1nc(CF)nc(NCc2ccc(Cl)cc2)n1`, the Activity is 6% in the experiment on Rotala indica [1]; 4% in experiment [2]; 3% in the experiment with Digitaria ciliaris [3]; 4% in [4]; 4% in the experiment with Echinochloa crus-galli [5]; 5% in the experiment on Pontederia vaginalis [6]. For the same molecule, the Activity in the experiment on Chenopodium album [7] is 5%; with Echinochloa oryzicola [8], 5%; with Chenopodium album [9], 6%; with Digitaria ciliaris [10], 4%; with Echinochloa crus-galli [11] it was 3%; with Persicaria longiseta [12] it was 6%. Further, the Activity in the experiment with Persicaria longiseta [21] was 4%.

Consider `Cc1nc(NCc2ccccc2)nc(C(F)F)n1`, for which the Activity came out at 5% in the experiment with Rotala indica [1]; 5% in experiment [2]; 4% in the experiment with Digitaria ciliaris [3]; 4% in experiment [4]; 3% in the experiment with Echinochloa crus-galli [5]; 6% in the experiment on Pontederia vaginalis [6]. In addition, the Activity with Chenopodium album [7] was found to be 6%; in the experiment on Echinochloa oryzicola [8] it was 4%; in the experiment with Chenopodium album [9], 6%; in the experiment on Digitaria ciliaris [10], 4%; with Echinochloa crus-galli [11] it was 5%; in the experiment with Persicaria longiseta [12] it was 6%. Further, the Activity with Persicaria longiseta [21] came out at 6%.

Take `Cc1nc(NCc2ccc(Br)cc2)nc(C(F)F)n1`: the Activity with Rotala indica [1] was 6%; in experiment [2], 6%; in the experiment on Digitaria ciliaris [3], 5%; in experiment [4], 5%; with Echinochloa crus-galli [5] it was 6%; in the experiment on Pontederia vaginalis [6], 6%. In addition, the Activity is on record as 6% in the experiment on Chenopodium album [7]; 6% in the experiment with Echinochloa oryzicola [8]; 6% with Chenopodium album [9]; 6% in the experiment with Digitaria ciliaris [10]; 4% in the experiment on Echinochloa crus-galli [11]; 6% in the experiment with Persicaria longiseta [12]. Also, the Activity in the experiment with Persicaria longiseta [21] is reported as 6%.

On to `Cc1nc(NCc2ccc(Cl)cc2)nc(C(F)F)n1`, for which the Activity in the experiment with Rotala indica [1] is given as 6%; in experiment [2], 6%; in the experiment on Digitaria ciliaris [3], 5%; in experiment [4] it was 5%; in the experiment with Echinochloa crus-galli [5] it was 6%; in the experiment on Pontederia vaginalis [6], 6%. The Activity in the experiment on Chenopodium album [7] is 6%; in the experiment with Echinochloa oryzicola [8] it was 5%; in the experiment with Chenopodium album [9] it was 6%; in the experiment with Digitaria ciliaris [10], 6%; with Echinochloa crus-galli [11], 4%; in the experiment with Persicaria longiseta [12], 6%. In the experiment on Persicaria longiseta [21], this molecule gave an Activity of 6%.

As for `Cc1nc(NCc2cccc(Cl)c2)nc(C(F)F)n1`, the Activity in the experiment with Rotala indica [1] is recorded as 5%; in experiment [2], 5%; with Digitaria ciliaris [3], 4%; in [4] it was 4%; in the experiment with Echinochloa crus-galli [5], 3%; in the experiment with Pontederia vaginalis [6], 5%. Further, the Activity in the experiment on Chenopodium album [7] is recorded as 5%; in the experiment on Echinochloa oryzicola [8] it was 4%; with Chenopodium album [9], 6%; in the experiment on Digitaria ciliaris [10], 4%; in the experiment on Echinochloa crus-galli [11], 4%; with Persicaria longiseta [12] it was 6%. In the experiment with Persicaria longiseta [21], the Activity is listed as 5%.

Take `CCNc1nc(Cl)nc(NCC)n1` [SIMAZINE]: the Activity came out at 2% in the experiment on Echinochloa crus-galli [22], 2% in the experiment on Chenopodium album [23], 5% in experiment [24] and 3% in the experiment on Digitaria ciliaris [25].
